Patent US20240417689A1, “ENGINEERING OF STRATIFIED CELL SHEETS USING MESENCHYMAL STEM CELLS” (Emmaus Life Sciences, Inc, priority 2021, published 2024)
Entries after “also recorded” stand apart in the source; their conditions may differ.

Assays:
adipose stromal cells [1] = assay: Chondrogenic differentiation of stem cells in differentiation medium supplemented with ROCK inhibitor; type: cell-based, human; details: for Cell differentiation noticed / started, time after initial treatment with ROCK inhibitor: MesenCult-ACF Chondrogenic Differentiation medium supplemented with ROCK inhibitor, dose dependent; for Induction of stem cell differentiation: differentiation medium supplemented with ROCK inhibitor
Protocol: (§1) Chondrocyte Cell Sheet: ASC were cultured with RoosterNourish™-MSC-XF, until the cells reached confluence. From that day, ASC were cultured with MesenCult™-ACF Chondrogenic Differentiation Kit (Stem Cell, Vancouver, Canada). The culture media was replaced every 2 days, up to X days from the initial seeding day depending on the technique used to engineer the cell sheet.
(§2) One of two techniques was used to complete the engineering process: 1) To stop centrifuge tension, the edges of the cell sheets were cut, and the cell sheet was left resting in almost absence of culture media (MesenCult™-ACF Chondrogenic Differentiation) to let the cell sheets' edges attached to the cell culture surface, for 20 minutes. The differentiation culture media (MesenCult™-ACF Chondrogenic Differentiation) was added to the cell culture dish and the chondrocyte cell sheet was engineered up to 21 days after the initial day of differentiation. 2) ROCK inhibitor Y-27632 at 10 μM or ROCK inhibitor Y-33075 at 1 μM were used from the first day of differentiation.

adipose stromal cells [2] = assay: Engineering of chondrocyte cell sheets with ROCK inhibitor (detachment, time of formation); type: cell-based, human; details: for Success in engineering the chondrocyte multilayer cell sheets: ROCK 1 and 2 inhibitors; for Detachment of the cell sheets / Time in which cell sheets were formed: Y-27632 at 10 μM or Y-33075 at 1 μM from the first day of differentiation; for Reduction of the time of differentiation: Y-27632 at 10 μM or Y-33075 at 1 μM, versus 21 days with edge cutting
Protocol: as §1, §2
Undifferentiated ASCCS were engineered in 10 days, using a chemically defined culture media. Differentiated ASCCS into Chondrocyte (treated with ROCK inhibitor from 1 to 20 μM), […] and osteoblast were also engineered using chemically defined and animal free culture media, in 14, 21 and 14 days, respectively. The transmittance of the ASCCS were measured over time from the time the cells reached confluence until the cell sheets were harvested.

adipose stromal cells [3] = assay: Toxicity of ROCK inhibitor for the cells during differentiation; type: cell-based; details: dose response

## C[C@@H](N)[C@H]1CC[C@H](C(=O)Nc2ccncc2)CC1 [Y-27632, (1R,4r)-4-((R)-1-aminoethyl)-N-(pyridin-4-yl)cyclohexane-1-carboxamide]
Adipose stromal cells [1]
  Cell differentiation noticed / started, time after initial treatment with ROCK inhibitor: 2 days
Adipose stromal cells [2]
  Success in engineering the chondrocyte multilayer cell sheets: used with success
  Detachment of the cell sheets: didn't detach
  Time in which cell sheets were formed: 2 weeks
  Reduction of the time of differentiation: 33%

## C[C@@H](N)c1ccc(C(=O)Nc2ccnc3[nH]ccc23)cc1 [Y-33075, (R)-4-(1-aminoethyl)-N-(1H-pyrrolo[2,3-b]pyridin-4-yl)benzamide]
Adipose stromal cells [1]
  Cell differentiation noticed / started, time after initial treatment with ROCK inhibitor: 1 days
Adipose stromal cells [2]
  Success in engineering the chondrocyte multilayer cell sheets: used with success
  Detachment of the cell sheets: didn't detach
  Time in which cell sheets were formed: 2 weeks
  Reduction of the time of differentiation: 33%

## Cc1cncc2cccc(S(=O)(=O)N3CCCNC[C@@H]3C)c12 [H-1152, (S)-4-methyl-5-((2-methyl-1,4-diazepan-1-yl)sulfonyl)isoquinoline]
Adipose stromal cells [1]
  Cell differentiation noticed / started, time after initial treatment with ROCK inhibitor: 2 days
  Induction of stem cell differentiation: induced the cell differentiation but it is less efficient than Y-27632 and Y-33075

## CC(C)NC(=O)COc1cccc(-c2nc(Nc3ccc4[nH]ncc4c3)c3ccccc3n2)c1 [Belumosudil, 2-[3-[4-(1H-Indazol-5-ylamino)quinazolin-2-yl]phenoxy]-N-propan-2-ylacetamide]
Adipose stromal cells [1]
  Induction of stem cell differentiation: failed to induce stem cell differentiation; also recorded: does not induce cell differentiation
Adipose stromal cells [3]
  Toxicity for the cells: toxic for the cells in a dose response, inducing cell death
